Experimental findings from paper PMC12622451, “NADPH Oxidase Inhibition Promotes Brain Resilience by Attenuating Tauopathy and Neuroinflammation in Alzheimer's Disease” (Advanced Science, 2025) are described below.

A word on the IC50: it is the point on the concentration scale where inhibition reaches its midpoint. The low end stands for greater potency in that assay, the high end for weaker potency in that assay.

Experiment [1] deals with T1, human Nox4 (Homo sapiens, UniProt Q9NPH5).
T1 sequence (Q9NPH5 1-578): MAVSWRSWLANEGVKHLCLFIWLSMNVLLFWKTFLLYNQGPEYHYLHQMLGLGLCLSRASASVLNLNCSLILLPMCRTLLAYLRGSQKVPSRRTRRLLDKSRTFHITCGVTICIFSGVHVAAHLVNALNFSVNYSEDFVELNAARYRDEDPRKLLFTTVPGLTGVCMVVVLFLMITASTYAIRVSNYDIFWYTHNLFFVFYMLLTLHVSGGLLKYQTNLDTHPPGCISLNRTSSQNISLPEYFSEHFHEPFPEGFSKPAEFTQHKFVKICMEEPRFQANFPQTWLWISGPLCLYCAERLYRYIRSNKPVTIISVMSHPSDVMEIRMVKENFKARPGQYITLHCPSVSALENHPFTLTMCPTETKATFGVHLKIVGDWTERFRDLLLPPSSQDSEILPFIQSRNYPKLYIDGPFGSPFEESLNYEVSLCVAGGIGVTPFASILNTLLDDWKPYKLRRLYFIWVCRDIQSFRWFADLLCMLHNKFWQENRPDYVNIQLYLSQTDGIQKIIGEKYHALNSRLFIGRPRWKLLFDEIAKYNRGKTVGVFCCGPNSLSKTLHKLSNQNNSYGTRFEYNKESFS
The experiment in a line: ROS chemiluminescence with Drosophila membranes expressing human Nox4. The format is biochemical.

Another experiment concerns the target human Duox2 (Homo sapiens, UniProt Q9NRD8). In words: ROS chemiluminescence with Drosophila membranes expressing human Duox2. In kind it is biochemical.
The target of another experiment is T2, human Nox5 (Homo sapiens, UniProt Q96PH1).
T2 sequence (Q96PH1 1-765): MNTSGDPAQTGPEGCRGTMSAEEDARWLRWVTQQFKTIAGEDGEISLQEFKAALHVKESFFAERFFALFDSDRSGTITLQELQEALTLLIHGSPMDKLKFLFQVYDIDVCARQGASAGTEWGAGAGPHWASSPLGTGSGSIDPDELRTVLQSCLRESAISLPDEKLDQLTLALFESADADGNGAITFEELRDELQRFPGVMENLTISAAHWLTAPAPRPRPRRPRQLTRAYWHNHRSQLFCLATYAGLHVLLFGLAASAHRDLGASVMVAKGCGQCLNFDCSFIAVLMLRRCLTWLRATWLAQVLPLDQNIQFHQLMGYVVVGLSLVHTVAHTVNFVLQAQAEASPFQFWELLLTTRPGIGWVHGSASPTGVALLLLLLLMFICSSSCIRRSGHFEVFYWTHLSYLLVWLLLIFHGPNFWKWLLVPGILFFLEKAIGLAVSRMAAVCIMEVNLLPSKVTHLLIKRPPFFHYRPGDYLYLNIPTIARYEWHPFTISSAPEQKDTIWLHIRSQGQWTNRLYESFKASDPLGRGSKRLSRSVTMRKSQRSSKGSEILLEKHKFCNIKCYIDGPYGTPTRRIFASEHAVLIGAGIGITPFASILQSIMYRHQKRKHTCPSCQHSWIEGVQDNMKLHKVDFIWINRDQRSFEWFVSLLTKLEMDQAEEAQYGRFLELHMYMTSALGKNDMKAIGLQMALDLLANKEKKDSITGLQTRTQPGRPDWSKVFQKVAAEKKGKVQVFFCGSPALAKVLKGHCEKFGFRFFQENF
In words: ROS chemiluminescence with Drosophila membranes expressing human Nox5. The format is biochemical.

Experiment [2] concerns the target T3, human Nox1 (Homo sapiens, UniProt Q9Y5S8).
T3 sequence (Q9Y5S8 1-564): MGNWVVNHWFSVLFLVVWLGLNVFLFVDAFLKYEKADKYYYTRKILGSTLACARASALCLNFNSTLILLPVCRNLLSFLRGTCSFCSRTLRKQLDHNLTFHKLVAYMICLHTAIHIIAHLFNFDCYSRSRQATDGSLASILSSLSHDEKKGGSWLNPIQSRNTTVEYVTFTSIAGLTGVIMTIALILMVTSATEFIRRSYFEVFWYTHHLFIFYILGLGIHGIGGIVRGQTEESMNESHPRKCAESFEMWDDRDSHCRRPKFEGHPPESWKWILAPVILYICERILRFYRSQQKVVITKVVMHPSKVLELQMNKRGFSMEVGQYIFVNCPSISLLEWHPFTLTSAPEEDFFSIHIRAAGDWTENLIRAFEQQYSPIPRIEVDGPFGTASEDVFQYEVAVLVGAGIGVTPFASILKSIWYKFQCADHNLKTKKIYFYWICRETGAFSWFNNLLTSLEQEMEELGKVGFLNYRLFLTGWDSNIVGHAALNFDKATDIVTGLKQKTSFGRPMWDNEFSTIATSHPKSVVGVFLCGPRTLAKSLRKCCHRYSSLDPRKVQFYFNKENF
The experiment in a line: ROS chemiluminescence with Drosophila membranes expressing human Nox1. The format is biochemical.

For a further experiment, the target named is human Duox1 (Homo sapiens, UniProt Q9NRD9). The experiment in a line: ROS chemiluminescence with Drosophila membranes expressing human Duox1. In kind it is biochemical.
Chain of human Duox1 (Q9NRD9 22-1551): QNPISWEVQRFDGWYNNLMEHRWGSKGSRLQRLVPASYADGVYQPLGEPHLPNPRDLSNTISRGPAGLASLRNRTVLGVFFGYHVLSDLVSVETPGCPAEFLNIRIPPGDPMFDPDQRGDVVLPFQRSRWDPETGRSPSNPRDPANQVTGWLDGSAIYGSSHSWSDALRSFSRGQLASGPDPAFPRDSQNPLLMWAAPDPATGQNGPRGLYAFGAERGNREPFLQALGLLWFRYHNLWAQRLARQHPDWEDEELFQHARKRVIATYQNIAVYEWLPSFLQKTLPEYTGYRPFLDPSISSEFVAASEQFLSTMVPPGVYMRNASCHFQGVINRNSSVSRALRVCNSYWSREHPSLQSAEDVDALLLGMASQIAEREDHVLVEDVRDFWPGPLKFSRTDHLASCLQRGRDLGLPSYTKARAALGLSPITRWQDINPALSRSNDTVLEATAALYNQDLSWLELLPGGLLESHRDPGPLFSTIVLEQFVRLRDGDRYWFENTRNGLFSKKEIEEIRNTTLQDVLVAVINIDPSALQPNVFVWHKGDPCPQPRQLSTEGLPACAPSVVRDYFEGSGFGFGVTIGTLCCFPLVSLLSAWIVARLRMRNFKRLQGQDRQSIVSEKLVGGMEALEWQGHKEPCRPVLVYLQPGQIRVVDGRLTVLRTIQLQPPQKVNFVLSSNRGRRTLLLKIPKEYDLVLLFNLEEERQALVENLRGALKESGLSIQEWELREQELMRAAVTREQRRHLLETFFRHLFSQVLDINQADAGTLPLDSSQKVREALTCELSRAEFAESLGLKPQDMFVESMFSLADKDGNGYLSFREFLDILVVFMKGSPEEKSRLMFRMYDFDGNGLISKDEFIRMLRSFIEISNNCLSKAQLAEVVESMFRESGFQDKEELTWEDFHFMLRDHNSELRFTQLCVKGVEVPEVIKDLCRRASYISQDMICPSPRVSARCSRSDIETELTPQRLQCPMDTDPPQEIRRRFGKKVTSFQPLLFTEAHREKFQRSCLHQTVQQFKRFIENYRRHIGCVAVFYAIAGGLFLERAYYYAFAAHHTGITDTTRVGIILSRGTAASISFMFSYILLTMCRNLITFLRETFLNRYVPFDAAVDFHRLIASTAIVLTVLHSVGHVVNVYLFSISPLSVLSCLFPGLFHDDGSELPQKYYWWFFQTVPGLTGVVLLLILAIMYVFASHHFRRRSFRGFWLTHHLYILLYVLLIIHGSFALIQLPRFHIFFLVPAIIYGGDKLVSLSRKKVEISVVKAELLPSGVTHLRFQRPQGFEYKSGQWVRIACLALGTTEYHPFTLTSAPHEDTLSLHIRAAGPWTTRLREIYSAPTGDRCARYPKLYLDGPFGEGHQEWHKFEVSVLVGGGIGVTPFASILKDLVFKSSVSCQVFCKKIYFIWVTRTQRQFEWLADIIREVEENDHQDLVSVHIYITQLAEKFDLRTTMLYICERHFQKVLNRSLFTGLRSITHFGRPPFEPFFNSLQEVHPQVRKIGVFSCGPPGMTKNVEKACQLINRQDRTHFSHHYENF
For experiment [3], the target named is T4, human Nox2 (Homo sapiens, UniProt P04839).
T4 construct: gene CYBB
T4 sequence (P04839 2-570): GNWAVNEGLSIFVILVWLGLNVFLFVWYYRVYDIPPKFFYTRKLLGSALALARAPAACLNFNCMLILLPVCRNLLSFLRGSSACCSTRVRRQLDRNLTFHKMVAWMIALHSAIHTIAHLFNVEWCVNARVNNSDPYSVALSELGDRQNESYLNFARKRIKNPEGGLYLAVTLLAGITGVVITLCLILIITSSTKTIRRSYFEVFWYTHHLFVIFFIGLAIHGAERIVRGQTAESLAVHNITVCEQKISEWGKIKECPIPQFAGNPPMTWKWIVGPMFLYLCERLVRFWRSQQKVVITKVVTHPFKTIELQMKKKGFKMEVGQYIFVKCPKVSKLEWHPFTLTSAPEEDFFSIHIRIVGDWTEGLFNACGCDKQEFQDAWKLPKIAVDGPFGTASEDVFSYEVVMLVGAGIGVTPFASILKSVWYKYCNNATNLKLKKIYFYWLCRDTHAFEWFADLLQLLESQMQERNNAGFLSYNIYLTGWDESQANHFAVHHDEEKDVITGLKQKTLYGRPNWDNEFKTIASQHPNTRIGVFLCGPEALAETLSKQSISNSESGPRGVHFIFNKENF
The experiment in a line: ROS chemiluminescence with Drosophila membranes expressing human Nox2. In kind it is biochemical.

Experiment [4] addresses T3, human Nox1.
The target of experiment [5] is T1, human Nox4. In words: lucigenin chemiluminescence with Drosophila membranes expressing human Nox4. In kind it is cell-based.
For experiment [6], the target named is T4, human Nox2. The experiment in a line: lucigenin chemiluminescence with Drosophila membranes expressing human Nox2. In kind it is cell-based.

Chain of human Duox2 (Q9NRD8 26-1548): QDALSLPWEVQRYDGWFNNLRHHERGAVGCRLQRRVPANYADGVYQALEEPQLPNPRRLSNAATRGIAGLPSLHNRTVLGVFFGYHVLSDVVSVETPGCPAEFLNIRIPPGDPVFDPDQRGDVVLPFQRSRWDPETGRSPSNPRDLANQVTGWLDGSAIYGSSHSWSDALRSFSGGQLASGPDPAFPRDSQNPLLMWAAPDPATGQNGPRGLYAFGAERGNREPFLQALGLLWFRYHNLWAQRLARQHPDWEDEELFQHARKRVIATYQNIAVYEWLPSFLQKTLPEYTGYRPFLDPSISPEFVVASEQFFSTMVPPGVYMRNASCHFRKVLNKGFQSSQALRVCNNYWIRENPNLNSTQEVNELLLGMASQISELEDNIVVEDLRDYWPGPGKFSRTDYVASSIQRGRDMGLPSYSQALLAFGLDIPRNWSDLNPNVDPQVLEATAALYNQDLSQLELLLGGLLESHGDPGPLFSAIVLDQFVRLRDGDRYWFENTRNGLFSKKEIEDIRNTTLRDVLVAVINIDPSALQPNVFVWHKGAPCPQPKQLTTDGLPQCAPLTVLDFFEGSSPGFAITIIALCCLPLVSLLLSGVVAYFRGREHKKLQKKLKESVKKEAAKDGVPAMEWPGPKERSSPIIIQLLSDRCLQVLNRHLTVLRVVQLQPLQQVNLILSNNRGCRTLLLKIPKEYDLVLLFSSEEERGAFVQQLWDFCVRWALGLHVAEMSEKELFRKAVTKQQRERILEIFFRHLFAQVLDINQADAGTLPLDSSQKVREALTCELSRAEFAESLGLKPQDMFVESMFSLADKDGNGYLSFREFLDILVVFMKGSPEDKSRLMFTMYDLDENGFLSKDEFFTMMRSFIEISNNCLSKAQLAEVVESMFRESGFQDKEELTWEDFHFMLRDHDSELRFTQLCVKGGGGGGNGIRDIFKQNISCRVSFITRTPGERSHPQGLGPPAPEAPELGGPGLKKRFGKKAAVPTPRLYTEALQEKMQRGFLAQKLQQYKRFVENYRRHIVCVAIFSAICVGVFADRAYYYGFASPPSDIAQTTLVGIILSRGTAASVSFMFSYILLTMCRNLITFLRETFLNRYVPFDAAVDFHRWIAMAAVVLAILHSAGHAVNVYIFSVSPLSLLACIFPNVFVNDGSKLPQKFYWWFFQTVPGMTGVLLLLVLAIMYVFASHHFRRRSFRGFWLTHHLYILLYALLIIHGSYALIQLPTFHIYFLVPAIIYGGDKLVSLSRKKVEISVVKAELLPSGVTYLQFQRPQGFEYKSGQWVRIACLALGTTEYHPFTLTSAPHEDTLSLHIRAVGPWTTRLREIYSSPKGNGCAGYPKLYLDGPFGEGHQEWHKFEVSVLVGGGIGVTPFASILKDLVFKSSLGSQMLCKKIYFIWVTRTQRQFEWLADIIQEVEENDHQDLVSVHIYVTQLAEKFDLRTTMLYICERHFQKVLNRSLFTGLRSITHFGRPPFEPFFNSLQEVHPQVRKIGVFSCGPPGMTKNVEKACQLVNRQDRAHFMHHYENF

On to `O=C(Nc1nnc(-c2ccccc2)o1)c1ccc(F)c(C(F)(F)F)c1` [CRB-2131, 4‐fluoro‐N‐(5‐phenyl‐1,3,4‐oxadiazol‐2‐yl)‐3‐(trifluoromethyl) benzamide], for which the IC50 against human Nox4 [1], on human Duox2, against human Nox5, against human Nox1 [2], against human Duox1 and against human Nox2 [3] was 200 to 300 nM each time.

As to `c1ccc2c(c1)[I+]c1ccccc1-2` [DPI, Diphenyleneiodonium chloride], the “lucigenin chemiluminescence with Drosophila membranes expressing human Nox1” value at human Nox1 [4] is “DPI exhibited low Nox inhibitory activity, while GSK2795039 showed very minimal inhibition”. Further, on human Nox4 [5], the “lucigenin chemiluminescence with Drosophila membranes expressing human Nox4” value is listed as “DPI exhibited low Nox inhibitory activity, while GSK2795039 showed very minimal inhibition”. Also, on human Nox2 [6], the “lucigenin chemiluminescence with Drosophila membranes expressing human Nox2” value is given as “DPI exhibited low Nox inhibitory activity, while GSK2795039 showed very minimal inhibition”.
